Measurements taken from ChEMBL document CHEMBL1201862, “PubChem BioAssay data set” (2004).
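Five concentrations, 48 hours, 96-well plates. GI50: concentration for 50% inhibition of growth.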 Activity calls are given as the source filed them. Rule as the data show it: active = GI50 up to about 1.1 µM and inactive = higher.

How the values were obtained:
Experiment in all cases: NCI tumour cell line growth inhibition, 48 h
UACC-62 = system: UACC-62
786-0 = system: 786-0
SNB-19 = system: SNB-19
Malme-3M = system: Malme-3M
SNB-75 = system: SNB-75
CCRF-CEM = system: CCRF-CEM
OVCAR-4 = system: OVCAR-4
HOP-92 = system: HOP-92
U-251 = system: U-251
RPMI-8226 = system: RPMI-8226
OVCAR-8 = system: OVCAR-8
COLO 205 = system: COLO 205
NCI-H226 = system: NCI-H226
NCI-H460 = system: NCI-H460
MCF7 = system: MCF7
PC-3 = system: PC-3
MDA-MB-435 = system: MDA-MB-435
MDA-MB-231 = system: MDA-MB-231
Hs-578T = system: Hs-578T

Measured: GI50

O=C(/C=C/c1ccc(Cl)c(Cl)c1)c1ccc2ccccc2c1
inactive: UACC-62 > 100 µM | 786-0 > 100 µM | SNB-19 > 100 µM | Malme-3M > 100 µM | SNB-75 52 µM | CCRF-CEM > 100 µM | OVCAR-4 > 100 µM | HOP-92 > 100 µM | U-251 > 100 µM | RPMI-8226 > 100 µM | OVCAR-8 > 100 µM | COLO 205 13.6 µM | NCI-H226 70.5 µM | NCI-H460 37.7 µM

C[N+](C)(C)CC(=O)N/N=C(/C(=O)Nc1ccc(Br)cc1)C1C(=O)NC(=O)NC1=O
inactive: UACC-62 > 100 µM | 786-0 > 100 µM | SNB-19 > 100 µM | Malme-3M > 100 µM | SNB-75 > 100 µM | CCRF-CEM > 100 µM | OVCAR-4 > 100 µM | U-251 > 100 µM | RPMI-8226 > 100 µM | COLO 205 > 100 µM | NCI-H226 > 100 µM | NCI-H460 > 100 µM

O=S(=O)(c1ccc(-c2nnc(-c3ccc(F)cc3)o2)cc1)c1ccc(-c2nnc(-c3ccc(F)cc3)o2)cc1
inactive: UACC-62 > 100 µM | 786-0 26.8 µM | SNB-19 34.6 µM | MCF7 > 100 µM | Malme-3M > 100 µM | SNB-75 11.1 µM | CCRF-CEM > 100 µM | OVCAR-4 > 100 µM | HOP-92 82.4 µM | PC-3 > 100 µM | U-251 21.7 µM | RPMI-8226 > 100 µM | OVCAR-8 > 100 µM | MDA-MB-435 > 100 µM | COLO 205 > 100 µM | NCI-H226 61.5 µM | NCI-H460 > 100 µM

CC1(C)CC(=O)C(=CNc2nc(-c3ccc(Br)cc3)cs2)C(=O)C1
inactive: 786-0 25.5 µM | SNB-19 33.5 µM | MCF7 32.6 µM | SNB-75 6.35 µM | OVCAR-4 37.5 µM | HOP-92 33 µM | MDA-MB-231 31.8 µM | PC-3 26.8 µM | U-251 30.6 µM | OVCAR-8 51.1 µM | MDA-MB-435 25.6 µM | COLO 205 31.2 µM | NCI-H226 45.3 µM | NCI-H460 31.1 µM

CC1CC(N)=Nc2ccccc2N1Cc1ccccc1 (stereo unspecified)
inactive: UACC-62 14.2 µM | 786-0 29.4 µM | SNB-19 15.9 µM | Malme-3M 2.22 µM | SNB-75 6.89 µM | CCRF-CEM 12.4 µM | OVCAR-4 16.5 µM | MDA-MB-231 14.4 µM | PC-3 14.2 µM | U-251 15.2 µM | RPMI-8226 5 µM | OVCAR-8 14.6 µM | MDA-MB-435 13.9 µM | COLO 205 14.9 µM | NCI-H226 15.7 µM | NCI-H460 13.9 µM | Hs-578T 11.1 µM

NNC(=O)CC(=O)Nc1ccccc1F
inactive: UACC-62 > 100 µM | 786-0 > 100 µM | SNB-19 > 100 µM | Malme-3M > 100 µM | SNB-75 > 100 µM | CCRF-CEM > 100 µM | OVCAR-4 > 100 µM | HOP-92 > 100 µM | U-251 > 100 µM | RPMI-8226 > 100 µM | OVCAR-8 > 100 µM | COLO 205 > 100 µM | NCI-H226 > 100 µM | NCI-H460 > 100 µM

CC1=C2CN(C(=O)OCC(C)C)CCC2C2=C(C(=O)c3ccccc3C2=O)C1C (stereo unspecified)
inactive: UACC-62 > 10 µM | 786-0 > 10 µM | MCF7 > 10 µM | Malme-3M > 10 µM | SNB-75 > 10 µM | CCRF-CEM > 10 µM | OVCAR-4 > 10 µM | HOP-92 > 10 µM | MDA-MB-231 > 10 µM | PC-3 > 10 µM | RPMI-8226 > 10 µM | OVCAR-8 > 10 µM | MDA-MB-435 > 10 µM | COLO 205 > 10 µM

COc1c(-c2ccccc2)oc2c(CP(=O)(OC)OC)cccc2c1=O
inactive: UACC-62 > 100 µM | 786-0 > 100 µM | MCF7 > 100 µM | Malme-3M > 100 µM | CCRF-CEM 94.4 µM | MDA-MB-231 > 100 µM | PC-3 > 100 µM | U-251 > 100 µM | RPMI-8226 14.6 µM | MDA-MB-435 > 100 µM | COLO 205 > 100 µM

O=C=NCCCCCCN1C(=O)N2C(c3ccccc3)N(CCCCCCN=C=O)C(=O)N2C1c1ccccc1 (stereo unspecified)
inactive: 786-0 > 100 µM | SNB-19 > 100 µM | MCF7 > 100 µM | Malme-3M > 100 µM | SNB-75 > 100 µM | CCRF-CEM 79.3 µM | OVCAR-4 > 100 µM | HOP-92 > 100 µM | MDA-MB-231 > 100 µM | PC-3 > 100 µM | U-251 > 100 µM | RPMI-8226 55 µM | OVCAR-8 > 100 µM | MDA-MB-435 > 100 µM | COLO 205 > 100 µM | NCI-H226 > 100 µM | NCI-H460 > 100 µM

CCOC(=O)C(=CN1CCNC1=S)C(=O)OCC
inactive: UACC-62 > 100 µM | 786-0 > 100 µM | MCF7 > 100 µM | Malme-3M > 100 µM | CCRF-CEM > 100 µM | OVCAR-4 > 100 µM | MDA-MB-231 > 100 µM | PC-3 > 100 µM | U-251 > 100 µM | RPMI-8226 > 100 µM | OVCAR-8 > 100 µM | MDA-MB-435 > 100 µM | COLO 205 > 100 µM | NCI-H226 > 100 µM | NCI-H460 > 100 µM

Cc1ccc(S(=O)(=O)c2ccc(C)cc2[N+](=O)[O-])cc1
inactive: UACC-62 92.3 µM | 786-0 > 100 µM | SNB-19 > 100 µM | Malme-3M > 100 µM | SNB-75 > 100 µM | CCRF-CEM > 100 µM | OVCAR-4 > 100 µM | HOP-92 > 100 µM | U-251 > 100 µM | RPMI-8226 > 100 µM | COLO 205 > 100 µM | NCI-H226 > 100 µM | NCI-H460 > 100 µM

N#CC(C/C=C/c1ccccc1)NNC(=O)c1c(Cl)c(Cl)c(Cl)c(Cl)c1-c1nc2cc(C(=O)c3ccccc3)ccc2[nH]1 (stereo unspecified)
inactive: 786-0 16.4 µM | SNB-19 14.8 µM | MCF7 7.94 µM | SNB-75 17.4 µM | CCRF-CEM 5.79 µM | OVCAR-4 14 µM | HOP-92 16.2 µM | MDA-MB-231 16.1 µM | PC-3 10.9 µM | U-251 12.5 µM | RPMI-8226 16.3 µM | OVCAR-8 16.7 µM | MDA-MB-435 4.11 µM | COLO 205 15 µM | NCI-H226 17.7 µM

CC(C)[C@H]1C(=O)O[B@-](F)(c2ccccc2)/[N+]1=C\N(C)C
inactive: UACC-62 > 100 µM | 786-0 > 100 µM | SNB-19 > 100 µM | MCF7 > 100 µM | Malme-3M > 100 µM | SNB-75 > 100 µM | CCRF-CEM > 100 µM | OVCAR-4 30.1 µM | HOP-92 > 100 µM | MDA-MB-231 > 100 µM | PC-3 > 100 µM | U-251 > 100 µM | RPMI-8226 > 100 µM | OVCAR-8 > 100 µM | MDA-MB-435 > 100 µM | COLO 205 > 100 µM | NCI-H226 > 100 µM | NCI-H460 > 100 µM
